The target of series [1] is T1, Prostaglandin E2 receptor EP3 subtype (Homo sapiens, UniProt P43115).
T1 sequence (P43115 whole entry): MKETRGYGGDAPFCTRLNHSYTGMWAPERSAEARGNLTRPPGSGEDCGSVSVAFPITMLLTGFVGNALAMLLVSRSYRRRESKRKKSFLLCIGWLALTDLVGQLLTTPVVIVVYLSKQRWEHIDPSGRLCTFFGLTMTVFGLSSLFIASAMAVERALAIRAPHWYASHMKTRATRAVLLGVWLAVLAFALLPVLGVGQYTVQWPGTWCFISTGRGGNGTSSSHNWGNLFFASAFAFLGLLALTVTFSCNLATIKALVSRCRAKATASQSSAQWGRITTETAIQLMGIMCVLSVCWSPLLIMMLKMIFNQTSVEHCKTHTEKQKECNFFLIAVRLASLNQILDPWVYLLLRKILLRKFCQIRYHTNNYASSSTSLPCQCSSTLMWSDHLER
The series is described as follows: Antagonist activity at human EP3 receptor expressed in CHO cells assessed as inhibition of PGE2-induced increase in intracellular calcium concentration after 1 hr by FLIPR assay. The class given is functional, cell-based. (In general: A change in cytosolic calcium serves as a functional read-out for many receptors and channels.)

Series [2] in a line: Clearance in Sprague-Dawley rat at 1 mg/kg, iv and 2 mg/kg, po. The class given is ADME, organism-based. Conditions: in vivo.
Series [3] in a line: Half life in Sprague-Dawley rat at 1 mg/kg, iv and 2 mg/kg, po. Particulars: in vivo. The class given is ADME, organism-based.
A further series relates to Rattus norvegicus. The series is described as follows: Dose normalized AUC in Sprague-Dawley rat at 2 mg/kg, po. The class given is ADME, organism-based. More on the design: dose 2 mg/kg, route oral. Conditions: in vivo.
The nature of series [4]: Oral bioavailability in Sprague-Dawley rat at 2 mg/kg. The class given is ADME, organism-based. Particulars: in vivo.
The next series is filed under the species Canis lupus familiaris. The series is described as follows: Antagonist activity at dog EP3 receptor. The class given is functional.
Series [5] deals with T2, Prostaglandin E2 receptor EP3 subtype (Rattus norvegicus) (UniProt P34980).
T2 sequence (whole entry): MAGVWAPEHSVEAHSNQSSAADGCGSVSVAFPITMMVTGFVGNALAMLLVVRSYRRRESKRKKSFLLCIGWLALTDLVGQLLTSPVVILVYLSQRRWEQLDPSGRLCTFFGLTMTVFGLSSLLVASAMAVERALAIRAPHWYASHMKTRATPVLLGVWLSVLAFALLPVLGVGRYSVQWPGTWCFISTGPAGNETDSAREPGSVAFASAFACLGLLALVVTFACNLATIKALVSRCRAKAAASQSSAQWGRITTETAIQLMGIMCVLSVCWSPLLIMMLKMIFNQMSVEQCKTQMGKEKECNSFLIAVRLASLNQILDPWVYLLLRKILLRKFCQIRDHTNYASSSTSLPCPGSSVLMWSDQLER
The series is described as follows: Antagonist activity at rat EP3 receptor. The class given is functional.

This is an account of results in ChEMBL document CHEMBL1770146, “Structure-activity relationship studies of novel 3-oxazolidinedione-6-naphthyl-2-pyridinones as potent and orally bioavailable EP3 receptor antagonists” (Bioorg Med Chem Lett, 2011).

One may read the Ki as a measure of affinity in units of concentration, obtained from inhibition or displacement. Usually half-life stands for how long it takes for the measured level to halve. Higher therefore signals slow decline. One may read the AUC as concentration integrated over time. Low values mean less exposure, high ones more exposure. One may read the bioavailability as the share of a dose that reaches the circulation, judged against a reference dose that is usually intravenous.

Molecules are shown by their SMILES. Active and inactive are the calls of the source. No cut-off for these calls is given here.

As for `CC(C)N1C(=O)OC(C)(c2ccc(-c3ccc4ccccc4c3)[nH]c2=O)C1=O` (centres undefined), the Ki in series [1] was 1580 nM.

For the molecule `O=C1NC(=O)C(c2ccc(-c3ccc4ccccc4c3)[nH]c2=O)(C2CC2)O1` (centres undefined), the Ki in series [1] is 50.1 nM. Take `O=C1NC(=O)C(c2ccccc2)(c2ccc(-c3ccc4ccccc4c3)[nH]c2=O)O1` (centres undefined): in series [1], the Ki was 31.6 nM.

Turning to `CC(C)C1(c2ccc(-c3ccc4ccccc4c3)nc2)OC(=O)NC1=O` (centres undefined), in series [1], the inhibition constant (Ki) is greater than 25100 nM. With `O=C1NC(=O)C(c2ccc(-c3ccc4ccccc4c3)[nH]c2=O)(C2CCOCC2)O1` (centres undefined), the Ki in series [1] is 200 nM. For `CC(C)[C@@]1(c2ccc(-c3ccc4ccccc4c3)[nH]c2=O)OC(=O)NC1=O`, the Ki in series [1] was 7.94 nM. Take `CN1C(=O)OC(C)(c2ccc(-c3ccc4ccccc4c3)[nH]c2=O)C1=O` (centres undefined): the inhibitory constant (Ki) in series [1] is 501 nM.

Consider `CC(C)C1(c2cc(Br)c(-c3ccc4ccccc4c3)[nH]c2=O)OC(=O)NC1=O` (centres undefined), for which the Ki in series [1] is 39.8 nM. In the case of `O=C1NC(=O)C(c2ccc(-c3ccc4ccccc4c3)[nH]c2=O)(C(F)(F)F)O1` (centres undefined), the Ki in series [1] was 126 nM. On to `COc1cc(-c2ccc3ccccc3c2)ccc1C1(C)OC(=O)NC1=O` (centres undefined), for which the Ki in series [1] was 3160 nM. Take `CC(C)[C@]1(c2ccc(-c3ccc4ccccc4c3)[nH]c2=O)OC(=O)NC1=O`: the Ki in series [1] was 20 nM. Take `CC(C)C1(c2c[nH]c(-c3ccc4ccccc4c3)cc2=O)OC(=O)NC1=O` (centres undefined): the Ki in series [1] was 794 nM. The molecule `CC(C)C1(c2ccc(-c3ccc4ccccc4c3)[nH]c2=O)OC(O)=NC1=O` (centres undefined) showed a clearance in series [2] of 5.1 mL/min/kg. In series [3], this molecule had a half-life of 3.5 h. In addition, in the series on Rattus norvegicus, the AUC was 4400 ng·h/mL. For the same molecule, the bioavailability in series [4] worked out at 100%. For `CC1(c2ccc(-c3ccc4ccccc4c3)[nH]c2=O)NC(=O)NC1=O` (centres undefined), in series [1], the Ki is 316 nM.

Regarding `CC1(c2ccc(-c3ccc4ccccc4c3)[nH]c2=O)CNC(=O)N1` (centres undefined), the Ki in series [1] is 39.8 nM.

With `CC1(c2ccc(-c3ccc4ccccc4c3)[nH]c2=O)OC(=O)NC1=O` (centres undefined), the Ki in series [1] was 20 nM.

On to `Cn1c(-c2ccc3ccccc3c2)ccc(C2(C)OC(=O)NC2=O)c1=O` (centres undefined), for which the Ki in series [1] was greater than 25100 nM. Consider `CC(C)C1(c2cc(C(F)(F)F)c(-c3ccc4ccccc4c3)[nH]c2=O)OC(=O)NC1=O` (centres undefined), for which the Ki in series [1] is 631 nM.

Take `CC(C)C1(c2ccc(-c3ccc4ccccc4c3)[nH]c2=O)OC(=O)NC1=O` (centres undefined): the outcome (in the series listed under Canis lupus familiaris; in series [5]) was Active.

For `O=C1NC(=O)C(c2ccc(-c3ccc4ccccc4c3)[nH]c2=O)(C2CCCCC2)O1` (centres undefined), the Ki in series [1] was 7.94 nM. Consider `O=C1NC(=O)C(Cc2ccccc2)(c2ccc(-c3ccc4ccccc4c3)[nH]c2=O)O1` (centres undefined), for which, in series [1], the Ki was 15.8 nM. Take `Cc1cc(C2(C(C)C)OC(=O)NC2=O)c(=O)[nH]c1-c1ccc2ccccc2c1` (centres undefined): the Ki in series [1] is 6.31 nM. This molecule came in with a clearance in series [2] of 1.4 mL/min/kg. Besides, the half-life in series [3] is 6.6 h. The same molecule yielded an AUC in the series with Rattus norvegicus of 13500 ng·h/mL. Further, the bioavailability in series [4] amounted to 100%. Regarding `CC(C)C1(c2cc(-c3ccccc3)c(-c3ccc4ccccc4c3)[nH]c2=O)OC(=O)NC1=O` (centres undefined), the Ki in series [1] is 2510 nM. Still for that read-out and setting: under `CC1(c2ccc(-c3ccc4ccccc4c3)cc2O)OC(=O)NC1=O` (centres undefined) stands 1260 nM.

Turning to `CC(C)C1(c2cc(Cl)c(-c3ccc4ccccc4c3)[nH]c2=O)OC(=O)NC1=O` (centres undefined), in series [1], the Ki was 50.1 nM. The clearance in series [2] was determined as 1.2 mL/min/kg. For the same molecule, the half-life in series [3] is 5.3 h. The AUC in the series on Rattus norvegicus worked out at 12900 ng·h/mL. This molecule returned a bioavailability in series [4] of 86%. `O=C1NC(=O)C(c2ccc(-c3ccc4ccccc4c3)[nH]c2=O)(C2CCCC2)O1` (centres undefined): the Ki in series [1] is 7.94 nM. For the molecule `CC1(c2ccc(-c3ccc4ccccc4c3)[nH]c2=O)CNC(=O)O1` (centres undefined), the Ki in series [1] was 79.4 nM.
